Results: US10265374B2, “Occidiofungin formations and uses thereof” (MISSISSIPPI STATE UNIVERSITY, priority 2014, dated 2019)
Where two headings read alike, the source gives them in different places. Starred links: 1 amine or outer side, 2 acyl side, 3 side chain; linkers in the order of their positions; H or OH if unused. Positions of bridges follow the written chain, without caps; N, C: chain ends. Non-standard residues stand in square brackets, D forms with d. Residues, ends and D or L forms follow the SMILES beside them. ξ: configuration not given here. X1 = CCCCCCCCCCCC(OC1OCC(O)C(O)C1O)C(O)C(O)CC(CC(=O)[*:1])N[*:2]; ξTyr(βOH) = NC(C(=O)O)C(O)c1ccc(O)cc1; ξAsn(3ξ-OH) = NC(=O)C(O)C(N)C(=O)O; Dab = NCC[CH](N)C(=O)O

How the values were obtained:
[1] = Pharmacokinetics of occidiofungin in DOPC or DOPC:DPPG vesicles; assay type: in vivo, mice; conditions: for half-life: female, BALB/c
Description: Entrapment of occidiofungin in vesicles was done using 1,2-Dioleoyl-sn-glycero-3-phosphocholine (DOPC) and 1,2-dipalmitoyl-sn-glycero-3-[phospho-rac-(3-lysyl(1-glycerol))] (DPPG) from Avanti polar lipids. Lipid cake formation and subsequent hydration was done according to the manufacturer's recommendation. Briefly, 20 mg/ml of DOPC in chloroform was placed in a glass beaker and dried by vacuum evaporation to remove the organic solvent. The lipid film formed was hydrated using a 1 μg/μl solution of occidiofungin in 1.5% (2-Hydroxypropyl)-β-cyclodextrin (Alfa Aesar), while maintaining the lipid concentration at 20 mg/ml and the solution was sonicated to form the vesicles. Similarly, DPPG was mixed with DOPC at a ratio of 9:1 (DOPC:DPPG) to make a homogenous lipid mixture at a concentration of 20 mg/ml and the same process of drying and hydration was repeated to make vesicles. Following vesicle formation, estimation of the amount of occidiofungin trapped inside each type of vesicle was done. The mixture containing free and vesicle trapped occidiofungin was passed through a gel filtration column containing Sephadex G-10 beads. The void volume (containing only the vesicle trapped occidiofungin) was collected and occidiofungin extracted using methanol (50% final concentration). Liquid chromatography was done on the extracted sample, and a standard and the concentration of occidiofungin in the extracted sample was estimated by a comparison of peak volumes.
Occidiofungin in DOPC and DOPC-DPPG, at a concentration of 2.5 mg/kg, with ˜1.25 mg/kg entrapped in vesicles, was administered to six female BALB/c mice respectively via intravenous administration. […] The mice were weighed prior to the start of the experiment and every 24 hours post injection (hpi).
Blood was drawn at time points 1 hpi, 3 hpi, 5 hpi, 7 hpi, 9 hpi, 12 hpi, 18 hpi, 24 hpi and 48 hpi. 15 μl of blood was drawn from the lateral saphenous vein of each mouse for the first three time points. Blood from three mice were pooled together and added to 5 μl of 6.4% citric acid to prevent coagulation. From the fourth time point, blood was drawn from the tail vein of the mice. Blood samples were spun down at 13000 rpm for 10 minutes to separate the plasma. The plasma and the blood pellet obtained were stored separately at −20° C. until analysis. The plasma samples were thawed and the occidiofungin was extracted using a final concentration of 50% methanol. The protein precipitate was spun down at 13000 rpm for 10 minutes and the supernatant was used for analysis. Liquid chromatography was done using Acclaim 120 C18 columns (Length: 150 mm; I.D: 2.1 mm; 5 μm) to purify the occidiofungin in the sample. The occidiofungin was then subjected to MS/MS. Fragmentation of the occidiofungin (parent mass 1200 and 1216 Da) was carried out and the fragment of 1068 and 1084 Da m/z, which corresponds to the occidiofungin molecule (A and B forms, respectively) without the xylose sugar, was used for quantification of occidiofungin. A calibration curve constructed using standard concentrations of occidiofungin in plasma was used to analyze the samples obtained from the mice for pharmacokinetics (See FIGS. 6A-6B & 7A-7B).

[2] = In vitro toxicity screening (CellTiter-Blue cell viability, 48 hours); assay type: cell-based, human; conditions: human
From the text: Cancer cell lines, OVCAR8 (Center for Cancer Research (OVAR.8; Sample ID 25)), SW1088 (ATCC-HTB-12), and Toledo (ATCC CRL-2631), and normal human neonatal dermal fibroblasts cell line (ATCC-PCS-201-010) were passaged and prepped as previously described (See References 15-17). OVCAR8, SW1088, and Toledo2631 are ovarian, brain, and B-cell lymphoma cancer cell lines, respectively. This panel of cell lines was chosen based, in part, on their being from very different cancer types in order to discern whether occidiofungin would have a broad spectrum activity towards cancer cell lines of vastly different parental organ/cell types. OVCAR8 cells are widely used in the field of cancer therapeutic research as a panel representative of ovarian cancer in screening experiments for identifying both ovarian-specific and non-specific (i.e., anti-neoplastic activity on multiple cancer cell types) therapeutic agents (See References 28-30). Similarly, SW1088 cells are widely used in the field of cancer therapeutic research as a panel representative of glioma (the most common brain cancer) in screening experiments for identifying both glioma-specific and non-specific therapeutic agents (See References 31-32). Toledo 2631 cells are derived from lymphoma cells, and are used in the field of cancer therapeutic research for identifying lymphoma-specific and non-specific therapeutic agents (See, e.g., Reference 33). […] Cell counts per plate were calculated to be approximately 50,000 cells/mL. A 10× stock solution of occidiofungin was prepared at 65 μM concentration in 10% dimethyl sulfoxide (DMSO). Two-fold serial dilutions on a 96 well plate were set up in triplicate with starting concentration of 6.5 μM and a final concentration of 3 nM. Bortezomib was used as a comparator for toxicity against human fibroblast and was serially diluted two-fold starting at a concentration of 5 μM and ending at 2.5 nM. Bortezomib is used clinically against myeloma and lymphoma cancers in patients refractory against other chemotherapeutics (See References 18, 19). Furthermore, bortezomib has shown efficacy against a variety of solid tumors and cancer cell lines, making this an appropriate comparison molecule in the panel of cell lines chosen (See References 34-35). The plates were then incubated at 37° C. in 5% CO2 for 48 hours. After 48 hours, cell viability was monitored using CellTiter-Blue (Promega) cell viability assay by measuring the fluorescence emission of a redox activated dye (579EX/584EM) using a POLARstar Omega microplate reader (BMG Labtech).

[3] = system: normal cells with lower metobolism; conditions: cited from earlier work

## CCCCCCCCCCCC(OC1OCC(O)C(O)C1O)C(O)C(O)CC1CC(=O)NC(CO)C(=O)NC(C(O)c2ccc(O)cc2)C(=O)NC(CCN)C(=O)NCC(=O)NC(CC(N)=O)C(=O)NC(CO)C(=O)NC(CC(N)=O)C(=O)N1 (stereo not drawn) [OCFIN-A] (S[ξTyr(βOH)][Dab]GNSN; linker N-C via X1; configuration not given here)
[1]; mouse, in vivo, iv, 2.5 mg/kg
  half-life: 14.6 h
  ke1: 0.0474 h⁻¹

## CCCCCCCCCCCC(OC1OCC(O)C(O)C1O)C(O)C(O)CC1CC(=O)NC(CO)C(=O)NC(C(O)c2ccc(O)cc2)C(=O)NC(CCN)C(=O)NCC(=O)NC(CC(N)=O)C(=O)NC(CO)C(=O)NC(C(O)C(N)=O)C(=O)N1 (stereo not drawn) [OCFIN-B] (S[ξTyr(βOH)][Dab]GNS[ξAsn(3ξ-OH)]; linker N-C via X1; configuration not given here)
[1]; mouse, in vivo, iv, packaged in DOPC:DPPG (90:10) vesicles, 2.5 mg/kg i.v., mice, read-out: t½ (converted)
  half-life: 14.8 h
[1]; packaged in DOPC:DPPG (90:10) vesicles, 2.5 mg/kg i.v., mice
  ke1: 0.0467 h⁻¹

## CC(C)C[C@H](NC(=O)[C@H](Cc1ccccc1)NC(=O)c1cnccn1)B(O)O [Bortezomib, bortezomib, reference compound]
[2]
  CC50 at 48 h: 4.09 µM
[3]
  toxicity in normal cells: micromolar range
